# Positions count from the first letter of the chain named.
# Key:
# [1] = molecular target: T1, Epac1-BRET sensor CAMYEL (Homo sapiens, UniProt O95398, F824A/T823A); experiment: CAMYEL Epac1-BRET sensor assay (cAMP-induced conformational change); format: biochemical; settings: for inhibitory activity on Epac1 activation, structure-activity comments: CAMYEL assay, compared with AM-001; for remaining activity at 20 µM: read-out: BRET ratio variation (% of 100 μM cAMP alone)
# T1 construct: made in house; host or cells: Prokaryotic expression vector pQE30-CAMYEL; used as cell extract
# T1 sequence (O95398 191-923 T823A/F824A limits assumed): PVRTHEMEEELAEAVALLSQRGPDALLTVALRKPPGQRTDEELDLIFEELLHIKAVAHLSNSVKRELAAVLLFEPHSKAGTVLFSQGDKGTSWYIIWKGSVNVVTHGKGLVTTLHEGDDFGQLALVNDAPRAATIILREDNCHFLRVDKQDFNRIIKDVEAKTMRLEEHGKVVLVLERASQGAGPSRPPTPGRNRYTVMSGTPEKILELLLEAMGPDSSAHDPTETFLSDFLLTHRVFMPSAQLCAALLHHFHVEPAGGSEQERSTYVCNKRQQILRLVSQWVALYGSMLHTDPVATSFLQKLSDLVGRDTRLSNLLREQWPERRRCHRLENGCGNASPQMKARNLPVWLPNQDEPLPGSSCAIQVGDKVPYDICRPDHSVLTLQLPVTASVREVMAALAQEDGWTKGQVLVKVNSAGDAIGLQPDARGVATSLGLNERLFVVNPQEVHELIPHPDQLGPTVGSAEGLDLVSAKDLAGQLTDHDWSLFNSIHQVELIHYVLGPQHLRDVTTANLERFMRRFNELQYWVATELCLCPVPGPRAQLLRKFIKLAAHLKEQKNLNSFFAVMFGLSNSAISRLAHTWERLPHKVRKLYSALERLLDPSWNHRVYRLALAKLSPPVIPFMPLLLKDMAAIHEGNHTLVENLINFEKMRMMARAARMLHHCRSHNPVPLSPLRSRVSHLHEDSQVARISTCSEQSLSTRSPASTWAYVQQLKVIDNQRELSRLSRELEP
# [2] = molecular target: T2, Epac1 (Homo sapiens, UniProt O95398); experiment: Rap1-GTP in HEK293 cells transfected with Epac1; format: cell-based; set-up: expressed in transfected cells; host or cells: HEK293; settings: 10 min; for inhibition of Epac1-induced Rap1 activation: 20 μM, 30 min preincubation, 8-CPT-AM 10 μM
# T2 sequence (O95398 1-923): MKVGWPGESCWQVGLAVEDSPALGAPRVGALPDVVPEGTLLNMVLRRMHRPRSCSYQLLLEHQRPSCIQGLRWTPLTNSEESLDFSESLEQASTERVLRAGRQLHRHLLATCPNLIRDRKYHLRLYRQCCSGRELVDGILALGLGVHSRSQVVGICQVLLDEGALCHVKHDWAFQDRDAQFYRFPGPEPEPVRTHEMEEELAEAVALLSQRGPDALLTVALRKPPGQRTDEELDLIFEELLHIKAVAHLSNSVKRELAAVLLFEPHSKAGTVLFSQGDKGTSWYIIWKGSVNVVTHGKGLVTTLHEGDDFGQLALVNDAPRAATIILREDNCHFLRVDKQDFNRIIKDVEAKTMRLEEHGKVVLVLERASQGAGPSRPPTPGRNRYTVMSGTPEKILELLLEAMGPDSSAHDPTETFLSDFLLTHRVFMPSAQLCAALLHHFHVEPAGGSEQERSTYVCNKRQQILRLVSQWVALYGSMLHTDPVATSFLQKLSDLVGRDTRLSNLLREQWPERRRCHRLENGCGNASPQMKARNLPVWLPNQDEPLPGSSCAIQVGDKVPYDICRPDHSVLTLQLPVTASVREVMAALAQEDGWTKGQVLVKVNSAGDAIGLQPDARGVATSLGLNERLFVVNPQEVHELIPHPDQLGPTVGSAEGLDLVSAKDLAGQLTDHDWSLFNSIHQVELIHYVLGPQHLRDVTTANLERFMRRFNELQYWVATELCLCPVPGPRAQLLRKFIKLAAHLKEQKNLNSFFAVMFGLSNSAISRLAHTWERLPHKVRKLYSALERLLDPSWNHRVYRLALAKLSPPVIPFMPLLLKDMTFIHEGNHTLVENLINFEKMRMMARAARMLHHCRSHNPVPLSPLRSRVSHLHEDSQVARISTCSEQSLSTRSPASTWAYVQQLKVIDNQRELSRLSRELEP
# Method: FIGS. 9-13. Amounts of Rap1-GTP (n=5 in each group, mean±S.E.M) were determined in HEK293 cells transfected with Epac1 (FIGS. 9-11), Epac2A (FIG. 12) or Epac2B (FIG. 13). Cells were preincubated or not with AM-001 (FIGS. 9, 12, and 13), AM-002 (FIG. 10) or AM-003 (FIG. 11) (20 μM, 30 min) and were then treated or not with 8-CPT-AM (10 μM for Epac1 activation and 20 μM for Epac2A activation) or S-220 (50 μM for Epac2B activation) for 10 min. ESI-05 was used as positive control of Epac2A inhibition. Representative immunoblots are shown. […], *[…], ***p<0.001, ****p<0.0001, versus indicated values, one way ANOVA, Bonferroni comparison test.
# Human Embryonic Kidney cells line (HEK293): HEK293 cells were maintained is in minimal essential medium with FBS (10%) and penicillin-streptomycin (1%). All media, sera, and antibiotics used in cell culture were purchased from Invitrogen.
# The human Epac1/Epac2 expression vector was a gift from Dr J. L. Bos. Cells were transfected using Lipofectamine 2000 (Invitrogen) according to the manufacturer's instructions. HEK293 cells were maintained in MEM with FBS (Foetal Bovine Serum; 10%) and penicillin-streptomycin (1%). All media, sera and antibiotics used in cell culture were purchased from Invitrogen (Cergy Pontoise, France). Transient transfection experiments were performed with Lipofectamine 2000 (Invitrogen Life Technologies) in the presence of various amounts of plasmid constructs according to the manufacturer's instructions.
# This cell line is commonly used for the evaluation of Epac pharmacological modulators on the cellular signaling of ectopically expressed Epac1 and Epac2 isoforms. […] Next, the inventors investigated the effect of 8-CPT-AM on the two Epac2 splice variants, Epac2A and Epac2B (FIGS. 12-13).
# [3] = molecular target: T3, Epac1 (Homo sapiens, UniProt O95398); experiment: biochemical
# T3 sequence (O95398 191-923 limits assumed): T1 sequence (O95398 191-923 T823A/F824A limits assumed) with A633T, A634F
# Excerpt: (§1) FIGS. 4-8. […] Variations of relative fluorescence units (RFU) were studied as a function of time and fitted to single exponentials.
# [4] = molecular target: T4, Epac2 (Homo sapiens, UniProt Q8WZA2); experiment: Epac GEF activity assay (b-GDP dissociation from recombinant Rap1), Epac2; format: biochemical
# T4 sequence (Q8WZA2 1-867 isoform Q8WZA2-3): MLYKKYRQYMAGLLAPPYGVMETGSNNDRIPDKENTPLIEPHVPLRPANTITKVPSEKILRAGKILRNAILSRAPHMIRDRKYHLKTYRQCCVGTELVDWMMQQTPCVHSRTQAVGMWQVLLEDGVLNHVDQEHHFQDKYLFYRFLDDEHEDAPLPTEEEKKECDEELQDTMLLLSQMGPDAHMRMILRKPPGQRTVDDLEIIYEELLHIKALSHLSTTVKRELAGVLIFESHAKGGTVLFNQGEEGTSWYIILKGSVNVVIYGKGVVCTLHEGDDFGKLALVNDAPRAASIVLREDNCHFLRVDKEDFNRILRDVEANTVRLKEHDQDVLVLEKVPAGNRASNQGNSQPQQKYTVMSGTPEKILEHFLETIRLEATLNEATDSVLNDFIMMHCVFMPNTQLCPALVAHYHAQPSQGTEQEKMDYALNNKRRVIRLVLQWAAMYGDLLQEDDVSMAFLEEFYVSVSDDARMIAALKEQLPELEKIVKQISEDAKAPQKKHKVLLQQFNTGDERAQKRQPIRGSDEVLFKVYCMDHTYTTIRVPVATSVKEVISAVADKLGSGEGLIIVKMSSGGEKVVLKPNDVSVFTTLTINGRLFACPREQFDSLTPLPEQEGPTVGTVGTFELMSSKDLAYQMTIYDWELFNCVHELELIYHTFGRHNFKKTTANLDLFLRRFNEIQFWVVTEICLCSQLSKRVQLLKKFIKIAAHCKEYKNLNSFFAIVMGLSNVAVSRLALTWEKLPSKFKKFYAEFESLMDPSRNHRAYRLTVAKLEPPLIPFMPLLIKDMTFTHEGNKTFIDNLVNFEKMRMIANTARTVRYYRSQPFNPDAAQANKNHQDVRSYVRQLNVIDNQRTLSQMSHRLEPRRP
# Excerpt: as §1
# [5] = tested on: mice; settings: single i.v. bolus 8 mg/kg 5 min before reperfusion; 45 min occlusion, 24 h reperfusion
# Method: Statistical significance was determined by two-way ANOVA followed by Bonferroni post-test or t-test. *p<0.01, **p<0.01, ***p<0.001, versus indicated values
# Mice were anesthetized with intraperitoneal ketamine (60 mg/kg) and xylazine (6 mg/kg), intubated and ventilated mechanically. Anesthesia was maintained throughout the chirurgical procedure with 1.5% isoflurane. Body temperature was maintained at 37° C. A left thoracotomy was performed in order to enable coronary artery occlusion with a 7-0 Prolene thread placed around the left coronary artery for 45 min, followed by 24 h of reperfusion. […] Myocardial ischemia was confirmed by the presence of regional cyanosis. Reperfusion was confirmed by visualization of a hyperemic response. At this point, the chest was closed in layers. 24 h after reperfusion, mice were anesthetized again, the coronary artery was reoccluded at the previous site, and the heart was excised after Evans blue perfusion. The area at risk and the infarct area were respectively determined by Evans blue and 2,3,5-triphenyltetrazolium chloride (TTC) staining. The area at risk was identified as the non-blue region and expressed as a percentage of the left ventricle weight. The infarcted area was identified as the TTC negative zone and expressed as a percentage of area at risk.
SMILES,"inhibitory activity on Epac1 activation, structure-activity comments [1]",remaining activity at 20 µM [1],further results
Nc1c(C(=O)Nc2ccccc2)sc2nc(-c3cccs3)cc(-c3ccccc3)c12 [AM-004],no significant effect on the inhibitory potency,47%,–
"O=c1c2sc3nc(-c4cccs4)cc(-c4ccccc4)c3c2ncn1-c1ccccc1 [AM-002, reference compound]",no significant inhibitory activity,93.6%,inhibition of Epac1-induced Rap1 activation [2]: inactive
NC(=O)c1sc2nc(-c3cccs3)cc(-c3ccc(F)cc3)c2c1N [AM-006],decreased but not abolished,74%,–
Nc1c(C(=O)Nc2ccccc2)sc2nc(-c3cccs3)cc(-c3ccc(F)cc3)c12 [AM-005],no significant effect on the inhibitory potency,46.9%,–
"COC1C2OP(O)(=S)OCC2OC1n1c(Sc2ccc(Cl)cc2)nc2c(N)ncnc21 (stereo not drawn) [Sp-8-CPT, 8-(4-Chlorophenylthio)-2′-O-methyladenosine-3′,5′-cyclic monophosphorothioate, Sp-isomer]",–,–,"EC50 [3]: 7.5 ± 1.1 µM; Vmax of Sp-8-CPT-activated Epac1 relative to cAMP-activated Epac1 [3]: 2.5 fold; apparent affinity of Epac1, Sp-8-CPT relative to cAMP ([3]; higher for Sp-8-CPT than for cAMP): 1.7 times; EC50 [4]: 5.6 ± 1.1 µM"
Cc1cc(-c2ccccc2)c2c(N)c(C(=O)Nc3ccccc3)sc2n1 [AM-008],–,82.2%,–
"C[C@@H]1CCc2c(cc(Br)c(F)c2Br)N1C=O [(R)-CE3F4, reference compound]",–,–,"IC50 (half-maximal inhibitory concentration), BRET sensor ([1]; not modified by increasing concentrations of cAMP): lower IC50 than AM-001; effect on Epac1 GEF (exchange) activity ([3]; 30 μM Sp-8-CPT, 20 μM inhibitor): reduced; ratio of infarct size to area-at-risk [5]: failed to reduce infarct size"
"CC(C)NC(=O)c1sc2nc(-c3cccs3)cc(-c3ccc(F)cc3)c2c1N [AM-003, reference compound]",abolished the inhibitory effect,100%,inhibition of Epac1-induced Rap1 activation [2]: inactive
"CO[C@@H]1[C@@H]2OP(=O)(OCOC(C)=O)OC[C@H]2O[C@H]1n1c(Sc2ccc(Cl)cc2)nc2c(N)ncnc21 (stereo partly drawn) [8-CPT-AM, 8-(4-chlorophenylthio)-2′-O-methyladenosine-3′,5′-cyclic monophosphate, acetoxymethyl ester]",–,–,"activation of Rap1 by agonist ([2]; cells overexpressing Epac1, 10 μM): robust activation of Rap1"
"Nc1ncnc2c1ncn2[C@@H]1O[C@@H]2COP(=O)(O)O[C@H]2[C@H]1O [cAMP, cyclic AMP, reference compound]",–,–,EC50 [4]: 2.8 ± 1.1 µM
"Cc1cc(C)c2c(N)c(C(=O)Nc3ccc(F)cc3)sc2n1 [AM-010, reference compound]",low activity,101%,–
Nc1c(C(=O)Nc2ccc(F)cc2)sc2nc(-c3cccs3)ccc12 [AM-009],decreased but not abolished,82.4%,–
Nc1c(C(=O)Nc2ccc(F)cc2)sc2nc3c(c(-c4ccccc4)c12)CCCC3 [AM-007],–,80.5%,–
